In brackets after ≈: the same amount, converted by molar mass. Read-outs that look alike come from different tables or passages of the source.
What was measured:
Bacillus subtilis = experiment: Minimal Inhibitory Concentration (MIC), Table I; type: cell-based
Excerpt: (§1) In general, the novel pseudotrisaccharides of this invention (I) can be used to treat diverse types of susceptible microbial, viral, helmintic and protozoal infestations. These anthelmintic, antiprotozoal, antimicrobial and antiviral activities can readily be determined by standard in vivo and in vitro tests well known to the microbiologist and virologist. Of the compounds of this invention it can generally be stated that those 6'--NH2 or 6'--NHR4 compounds having a 2'--OH group are preferred for their activity against bacteria, trichomonas, amoeba, and helminths; those 2'--HN2 or 2'--NHR4 compounds having a 6'--OH group are preferred for their activity against bacteria, trichomona, amoeba, and helminths; those 2'--NH2 or 2'--NHR4 compounds having a 6'--NH2 or a 6'--NHR4 group are preferred for their antibacterial activity while those 2'--OH or 6'--OH compounds are preferred for their antitrichomonal activity.
(§2) Typical activity is illustrated by the following tables showing antibacterial and antiprotozoal activities.
(§3) Minimal Inhibitory Concentration (MIC) (mcg/ml)

[1] = test system: Escherichia coli (G resistant); experiment: Minimal Inhibitory Concentration (MIC), Table I; type: cell-based; conditions: garamycin resistant
Excerpt: as §1, §2, §3

[2] = test system: Escherichia coli (N,K resistant); experiment: Minimal Inhibitory Concentration (MIC), Table I; type: cell-based; conditions: neomycin, kanamycin resistant
Excerpt: as §1, §2, §3

[3] = test system: Escherichia coli (T resistant); experiment: Minimal Inhibitory Concentration (MIC), Table I; type: cell-based; conditions: tobramycin resistant
Excerpt: as §1, §2, §3

Escherichia coli = experiment: Minimal Inhibitory Concentration (MIC), Table I; type: cell-based
Excerpt: as §1, §2, §3

[4] = test system: Klebsiella pneumoniae (G-resistant); experiment: Minimal Inhibitory Concentration (MIC), Table I; type: cell-based; conditions: garamycin resistant
Excerpt: as §1, §2, §3

[5] = test system: Klebsiella pneumoniae (N,M resistant); experiment: Minimal Inhibitory Concentration (MIC), Table I; type: cell-based
Excerpt: as §1, §2, §3

Proteus mirabilis = experiment: Minimal Inhibitory Concentration (MIC), Table I; type: cell-based
Excerpt: as §1, §2, §3

Providence = experiment: Minimal Inhibitory Concentration (MIC), Table I; type: cell-based
Excerpt: as §1, §2, §3

[6] = test system: Pseudomonas aeruginosa (G resistant); experiment: Minimal Inhibitory Concentration (MIC), Table I; type: cell-based; conditions: garamycin resistant
Excerpt: as §1, §2, §3

Serratia marcessans = experiment: Minimal Inhibitory Concentration (MIC), Table I; type: cell-based
Excerpt: as §1, §2, §3

Staphylococcus aureus = experiment: Minimal Inhibitory Concentration (MIC), Table I; type: cell-based
Excerpt: as §1, §2, §3

Streptococcus pyogenes C = experiment: Minimal Inhibitory Concentration (MIC), Table I; type: cell-based
Excerpt: as §1, §2, §3

Trichomonas Vaginalis = experiment: In vitro Activity Against Trichomonas Vaginalis, Table II; type: cell-based; conditions: for IC99: read-out: Minimal 99% suppression level; for MBC: read-out: Minimal Cidal Level
Excerpt: as §1, §2
In vitro Activity Against Trichomonas Vaginalis
STS - Simplified Tripticase Serum Medium, Baltimore Biological
Laboratories, Baltimore, Maryland.

Salmonella typhimurium = experiment: Minimal Inhibitory Concentration (MIC), Table I; type: cell-based; conditions: Salmonella enterica
Excerpt: as §1, §2, §3

Pseudomonas aeruginosa = experiment: Minimal Inhibitory Concentration (MIC), Table I; type: cell-based
Excerpt: as §1, §2, §3

pKa of garamine = type: physicochemical
Method: i. 1,3,3'-Tri-N-carbobenzoxygaramine (2.02 g.) was dissolved in methanol (100 ml.), and 10% palladium on carbon (1.0 g.) was added. The mixture was hydrogenated at 25° at 50 lbs/sq. in. for 16 hours, and the catalyst was filtered off, and washed with methanol. The filtrate was evaporated, and chromatographed on silica gel using the lower phase of a chloroform-methanol-concentrated ammonium hydroxide (2:1:1) system as the eluent. The fractions containing the garamine were concentrated in vacuo to small volume, and were then passed through Amberlite IR45 resin. The eluate was concentrated to small volume in vacuo, and the resulting solution was lyophilized to give garamine (750 mg.) (84%) as a colorless amorphous solid, m.p. 89°-99°, (Found: C, 48.31; H, 8.54; N, 12.87. C13 H27 N3 O6 requires: C, 48.60; H, 8.41; N, 13.08%), m/e 322 (M^+ +1), [α]D^26 + 135.4° (H2 O), pKa 8.5, .nu. max (nujol) 3300, 1060 cm.^-1, δ (D 2 O) 1.19 (3H, s, 4'--CH3), 2.51 (3H, s, 3'--NCH3), 2.57 (1H, d, J2',3' =10.5 Hz, H3'), 3.30 )1H, d, J5'a,5'e =12.5 Hz, H5'a), 3.79 (1H, dd, J2',3' =10.5 Hz, J1',2' =4 Hz, H2'), 4.03 (1H, d, J5'a,5'e =12.5 Hz, H5'e), 5.06 ppm. (1H, d, J1',2' =4 Hz, H1').

| SMILES | MIC (Bacillus subtilis) [µg/mL] | MIC [1] [µg/mL] | MIC [2] [µg/mL] | MIC [3] [µg/mL] | MIC (Escherichia coli) [µg/mL] | MIC [4] [µg/mL] | MIC [5] [µg/mL] | MIC (Proteus mirabilis) [µg/mL] | MIC (Providence) [µg/mL] | MIC [6] [µg/mL] | MIC (Serratia marcessans) [µg/mL] | MIC (Staphylococcus aureus) [µg/mL] | MIC (Streptococcus pyogenes C) [µg/mL] | IC99 (Trichomonas Vaginalis; 24 hr.) [µg/mL] | MBC (Trichomonas Vaginalis; 24 hr.) [µg/mL] | IC99 (Trichomonas Vaginalis; 48 hr.) [µg/mL] | MBC (Trichomonas Vaginalis; 48 hr.) [µg/mL] | MIC (Salmonella typhimurium) [µg/mL] | MIC (Pseudomonas aeruginosa) [µg/mL] | pKa (pKa of garamine) |
| --- | --- | --- | --- | --- | --- | --- | --- | --- | --- | --- | --- | --- | --- | --- | --- | --- | --- | --- | --- | --- |
| CN[C@@H]1[C@@H](O)[C@@H](O[C@@H]2[C@@H](O)[C@H](O[C@H]3O[C@H](CO)[C@@H](O)[C@H](O)[C@H]3N)[C@@H](N)C[C@H]2N)OC[C@]1(C)O (stereo in doubt) [Gentamicin X2] | 0.08 (≈ 0.166 µM) | > 25 | > 25 | > 25 | 0.8 to 3 (≈ 1.66 to 6.22 µM) | > 25 | > 25 | 3 (≈ 6.22 µM) | > 25 | > 25 | > 25 | 0.3 to 7.5 (≈ 0.622 to 15.5 µM) | 1 to 17.5 (≈ 2.07 to 36.3 µM) | 10 | 10 (≈ 20.7 µM) | < 10 | 10 (≈ 20.7 µM) |  |  |  |
| CCN[C@H]1[C@@H](O[C@H]2[C@H](O)[C@@H](O[C@H]3OC[C@](C)(O)[C@H](NC)[C@H]3O)[C@H](N)C[C@@H]2N)O[C@H](CO)[C@@H](O)[C@@H]1O [2'-N-Ethylgentamicin X2] | 3 (≈ 5.88 µM) |  | > 25 | > 25 |  | > 25 | > 25 | > 25 | > 25 | > 25 | > 25 | 3 to 7.5 (≈ 5.88 to 14.7 µM) |  | < 10 | 10 (≈ 19.6 µM) | < 2.5 | 2.5 (≈ 4.9 µM) | 3 (≈ 5.88 µM) |  |  |
| CCN[C@@H]1C[C@H](O)[C@@H](CO)O[C@@H]1O[C@H]1[C@H](O)[C@@H](O[C@H]2OC[C@](C)(O)[C@H](NC)[C@H]2O)[C@H](N)C[C@@H]1N [3'-Deoxy-2'-N-ethylgentamicin X2] | > 25 | > 25 | 17.5 (≈ 35.4 µM) | 3 (≈ 6.07 µM) |  | > 25 | 3 to 7.5 (≈ 6.07 to 15.2 µM) | > 25 | > 25 | > 25 | 3 (≈ 6.07 µM) |  | > 25 | < 2.5 | < 2.5 | < 2.5 | < 2.5 |  |  |  |
| CNC[C@H]1O[C@H](O[C@H]2[C@H](O)[C@@H](O[C@H]3OC[C@](C)(O)[C@H](NC)[C@H]3O)[C@H](N)C[C@@H]2N)[C@H](O)C[C@@H]1O [3'-Deoxy-6'-N-methylgentamicin B] | < 0.1 |  | 0.75 to 17.5 (≈ 1.56 to 36.4 µM) | > 25 | 0.1 to 0.75 (≈ 0.208 to 1.56 µM) | > 25 | 0.3 to 0.75 (≈ 0.624 to 1.56 µM) | 0.75 to 3 (≈ 1.56 to 6.24 µM) | 3 (≈ 6.24 µM) |  | 3 (≈ 6.24 µM) | 0.1 to 0.3 (≈ 0.208 to 0.624 µM) | 0.1 to 17.5 (≈ 0.208 to 36.4 µM) |  |  |  |  |  | 0.1 to 3 (≈ 0.208 to 6.24 µM) |  |
| CN[C@@H]1[C@@H](O)[C@@H](O[C@@H]2[C@@H](O)[C@H](O[C@H]3O[C@H](CO)[C@@H](O)C[C@H]3N)[C@@H](N)C[C@H]2N)OC[C@]1(C)O [3'-Deoxygentamicin X2] | 0.03 (≈ 0.0643 µM) | > 25 | 3 to 7.5 (≈ 6.43 to 16.1 µM) | 17.5 (≈ 37.5 µM) | 3 to 7.5 (≈ 6.43 to 16.1 µM) | > 25 | 0.8 to 3 (≈ 1.71 to 6.43 µM) | 7.5 (≈ 16.1 µM) | > 25 | > 25 | 0.8 (≈ 1.71 µM) | 0.5 to 7.5 (≈ 1.07 to 16.1 µM) |  | 10 | 10 (≈ 21.4 µM) | < 10 | 10 (≈ 21.4 µM) | 7.5 (≈ 16.1 µM) | 3 to 7.5 (≈ 6.43 to 16.1 µM) |  |
| CN[C@@H]1[C@@H](O)[C@@H](O[C@@H]2[C@@H](O)[C@H](O[C@H]3O[C@H](CN)[C@@H](O)C[C@H]3N)[C@@H](N)C[C@H]2N)OC[C@]1(C)O [3'-deoxy-JI-20A, O-2,6-Diamino-2,3,6-trideoxy-α-D-glucopyranosyl-(1→4)-garamine] | < 0.05 | > 25 | 0.08 to 0.8 (≈ 0.172 to 1.72 µM) | 17.5 (≈ 37.6 µM) | 0.08 (≈ 0.172 µM) |  | 0.08 (≈ 0.172 µM) | 0.3 (≈ 0.644 µM) | > 25 | > 25 | 3 (≈ 6.44 µM) | 0.08 to 0.3 (≈ 0.172 to 0.644 µM) | 0.8 to 7.5 (≈ 1.72 to 16.1 µM) |  |  |  |  | 0.75 (≈ 1.61 µM) | 0.08 to 0.8 (≈ 0.172 to 1.72 µM) |  |
| CN[C@@H]1[C@@H](O)[C@@H](O[C@@H]2[C@@H](O)[C@H](O)[C@@H](N)C[C@H]2N)OC[C@]1(C)O [Garamine, 0-3-deoxy-4-C-methyl-3-(methylamino)-β-L-arabinopyranosyl-(1→6)-2-deoxy-D-streptamine] |  |  |  |  |  |  |  |  |  |  |  |  |  |  |  |  |  |  |  | 8.5 |
| CN[C@@H]1[C@@H](O)[C@@H](O[C@@H]2[C@@H](O)[C@H](O[C@H]3O[C@H](CN)[C@@H](O)[C@H](O)[C@H]3N)[C@@H](N)C[C@H]2N)OC[C@]1(C)O [JI-20A] | < 0.05 | > 25 |  | > 25 | 0.3 (≈ 0.623 µM) | > 25 | > 25 | 7.5 (≈ 15.6 µM) | > 25 | > 25 | > 25 | 0.3 (≈ 0.623 µM) | 17.5 (≈ 36.3 µM) |  |  |  |  | 0.3 (≈ 0.623 µM) | 7.5 to 17.5 (≈ 15.6 to 36.3 µM) |  |
| CN[C@@H]1[C@@H](O)[C@@H](O[C@@H]2[C@@H](O)[C@H](O[C@H]3O[C@H](CO)[C@@H](O)[C@H](O)[C@H]3O)[C@@H](N)C[C@H]2N)OC[C@]1(C)O [O-α-D-Glucopyranosyl-(1→4)-garamine] |  |  |  |  |  |  |  |  |  |  |  |  |  | 10 | 25 (≈ 51.7 µM) | < 10 | 10 (≈ 20.7 µM) |  |  |  |

Reference: patent US4063015A, “Garamine and derivatives thereof” (Schering Corporation, priority 1975, dated 1977)
